Laboratory results taken from patent US20250312462A1, “PAK1 DEGRADERS AND METHODS OF USE THEREOF” (INSTITUTE FOR CANCER RESEARCH D/B/A THE RESEARCH INSTITUTE …, priority 2022, published 2025).

Legend:
WEE1 = WEE1 (Homo sapiens, UniProt P30291); assay: KINOMEscan; conditions: read-out: Percent Control
Protocol: (§1) The kinase engagement assay (KINOMEscan®) was performed by DiscoverX assessing binding abilities toward a set of kinases.

NEK1 = NEK1 (Homo sapiens, UniProt Q96PY6); assay: KINOMEscan; conditions: read-out: Percent Control
Protocol: as §1

PAK1 = PAK1 (Homo sapiens, UniProt Q13153); assay: PAK1 degradation in MCF7 and OVCAR3 cells, immunoblot; assay type: cell-based; set-up: endogenous in cells; host or cells: MCF7, OVCAR3
PAK1, sequence (Q13153 whole entry): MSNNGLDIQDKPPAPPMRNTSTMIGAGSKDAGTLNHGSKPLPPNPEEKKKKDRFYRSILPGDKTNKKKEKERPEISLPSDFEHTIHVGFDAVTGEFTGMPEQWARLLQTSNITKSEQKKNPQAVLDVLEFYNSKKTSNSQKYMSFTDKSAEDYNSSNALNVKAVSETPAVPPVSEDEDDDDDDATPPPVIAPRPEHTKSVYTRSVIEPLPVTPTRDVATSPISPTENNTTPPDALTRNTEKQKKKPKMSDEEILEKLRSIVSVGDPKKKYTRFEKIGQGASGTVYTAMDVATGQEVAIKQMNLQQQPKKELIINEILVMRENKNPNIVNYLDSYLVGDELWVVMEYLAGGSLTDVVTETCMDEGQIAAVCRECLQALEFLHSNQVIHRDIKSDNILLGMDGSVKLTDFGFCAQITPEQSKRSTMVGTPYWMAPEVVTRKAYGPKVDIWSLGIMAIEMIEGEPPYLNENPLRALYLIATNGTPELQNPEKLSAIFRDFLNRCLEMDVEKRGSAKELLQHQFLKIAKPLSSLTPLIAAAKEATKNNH
Protocol: Protein lysates were harvested at the times specified.
Cell lysates were obtained by centrifugation at 13,500 rpm for 15 minutes at 4° C. BCA protein assay (Thermo Scientific) was used to determine protein concentration then equal amounts of total proteins were separated by SDS-PAGE (Bio-Rad) and transferred to PVDF membrane (Thermo Scientific) at 100V for 2 hours. Membranes were blocked in 5% (w/v) non-fat dry milk in tris-buffered saline with 0.1% Tween-20 (TBS-T) for 1 hour and incubated with primary antibody at 4° C. for overnight. Membranes were washed with TBS-T on the next day and incubated with HRP-conjugated secondary antibodies (Millipore) at room temperature for 1 hour and exposed to films after washing.

p38-gamma = p38-gamma (Homo sapiens, UniProt P53778); assay: KINOMEscan; conditions: read-out: Percent Control
Protocol: as §1

GRK7 = GRK7 (Homo sapiens, UniProt Q8WTQ7); assay: KINOMEscan; conditions: read-out: Percent Control
GRK7, sequence (Q8WTQ7 whole entry): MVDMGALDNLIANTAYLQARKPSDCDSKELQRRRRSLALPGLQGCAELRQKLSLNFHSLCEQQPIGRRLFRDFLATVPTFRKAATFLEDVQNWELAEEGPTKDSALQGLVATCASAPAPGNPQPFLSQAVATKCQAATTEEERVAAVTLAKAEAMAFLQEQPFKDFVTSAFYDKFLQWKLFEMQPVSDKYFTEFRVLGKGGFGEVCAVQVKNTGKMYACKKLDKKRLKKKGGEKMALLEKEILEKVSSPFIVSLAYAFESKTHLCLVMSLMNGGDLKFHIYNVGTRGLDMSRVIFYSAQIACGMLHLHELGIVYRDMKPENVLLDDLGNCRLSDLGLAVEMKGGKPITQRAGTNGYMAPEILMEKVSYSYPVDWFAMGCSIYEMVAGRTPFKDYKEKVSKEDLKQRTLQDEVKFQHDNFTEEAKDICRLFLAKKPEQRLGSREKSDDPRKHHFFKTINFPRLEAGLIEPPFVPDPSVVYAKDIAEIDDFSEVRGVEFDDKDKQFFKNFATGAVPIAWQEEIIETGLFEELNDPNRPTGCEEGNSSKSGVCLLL
Protocol: as §1

EGFR(L858R) = EGFR(L858R) (Homo sapiens, UniProt P00533, L858R); assay: KINOMEscan; conditions: read-out: Percent Control
Protocol: as §1

ROCK1 = ROCK1 (Homo sapiens, UniProt Q13464); assay: KINOMEscan; conditions: read-out: Percent Control
Protocol: as §1

PKNB(M. tuberculosis) = molecular target: T1, PKNB(M. tuberculosis) (Mycobacterium tuberculosis, UniProt P9WI81); assay: KINOMEscan; assay type: binding; conditions: read-out: Percent Control
T1 construct: purchased DiscoverX

ULK3 = ULK3 (Homo sapiens, UniProt Q6PHR2); assay: KINOMEscan; conditions: read-out: Percent Control
Protocol: as §1

NEK10 = NEK10 (Homo sapiens, UniProt Q6ZWH5); assay: KINOMEscan; conditions: read-out: Percent Control
Protocol: as §1

ACVR2B = ACVR2B (Homo sapiens, UniProt Q13705); assay: KINOMEscan; conditions: read-out: Percent Control
Protocol: as §1

MST2 = MST2 (Homo sapiens, UniProt Q13188); assay: KINOMEscan; conditions: read-out: Percent Control
Protocol: as §1

PKN2 = PKN2 (Homo sapiens, UniProt Q16513); assay: KINOMEscan; conditions: read-out: Percent Control
Protocol: as §1

CSNK2A1 = CSNK2A1 (Homo sapiens, UniProt P68400); assay: KINOMEscan; conditions: read-out: Percent Control
Protocol: as §1

MKK7 = MKK7 (Homo sapiens, UniProt O14733); assay: KINOMEscan; conditions: read-out: Percent Control
Protocol: as §1

TIE1 = TIE1 (Homo sapiens, UniProt P35590); assay: KINOMEscan; conditions: read-out: Percent Control
Protocol: as §1

DCAMKL1 = DCAMKL1 (Homo sapiens, UniProt O15075); assay: KINOMEscan; conditions: read-out: Percent Control
DCAMKL1, sequence (O15075 whole entry): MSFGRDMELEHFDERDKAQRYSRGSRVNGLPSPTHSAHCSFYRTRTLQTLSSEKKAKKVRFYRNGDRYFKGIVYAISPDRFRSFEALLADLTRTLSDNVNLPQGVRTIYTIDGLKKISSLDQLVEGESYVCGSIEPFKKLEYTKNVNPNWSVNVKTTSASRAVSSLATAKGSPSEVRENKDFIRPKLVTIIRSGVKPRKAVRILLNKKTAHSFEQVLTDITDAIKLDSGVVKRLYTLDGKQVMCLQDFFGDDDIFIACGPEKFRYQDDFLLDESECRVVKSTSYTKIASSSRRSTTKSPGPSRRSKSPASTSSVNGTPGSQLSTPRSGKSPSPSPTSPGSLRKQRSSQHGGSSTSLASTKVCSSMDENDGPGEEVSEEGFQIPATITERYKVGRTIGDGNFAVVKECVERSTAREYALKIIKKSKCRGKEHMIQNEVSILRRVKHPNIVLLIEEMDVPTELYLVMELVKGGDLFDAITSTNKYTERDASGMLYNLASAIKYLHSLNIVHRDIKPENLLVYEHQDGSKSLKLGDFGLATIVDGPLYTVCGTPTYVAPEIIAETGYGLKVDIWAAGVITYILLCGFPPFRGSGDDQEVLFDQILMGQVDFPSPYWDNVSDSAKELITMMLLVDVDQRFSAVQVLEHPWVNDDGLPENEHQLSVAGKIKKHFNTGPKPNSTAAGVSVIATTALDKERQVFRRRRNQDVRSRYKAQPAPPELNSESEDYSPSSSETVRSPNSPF
Protocol: as §1

RIPK2 = RIPK2 (Homo sapiens, UniProt O43353); assay: KINOMEscan; conditions: read-out: Percent Control
Protocol: as §1

TESK1 = TESK1 (Homo sapiens, UniProt Q15569); assay: KINOMEscan; conditions: read-out: Percent Control
TESK1, sequence (Q15569 whole entry): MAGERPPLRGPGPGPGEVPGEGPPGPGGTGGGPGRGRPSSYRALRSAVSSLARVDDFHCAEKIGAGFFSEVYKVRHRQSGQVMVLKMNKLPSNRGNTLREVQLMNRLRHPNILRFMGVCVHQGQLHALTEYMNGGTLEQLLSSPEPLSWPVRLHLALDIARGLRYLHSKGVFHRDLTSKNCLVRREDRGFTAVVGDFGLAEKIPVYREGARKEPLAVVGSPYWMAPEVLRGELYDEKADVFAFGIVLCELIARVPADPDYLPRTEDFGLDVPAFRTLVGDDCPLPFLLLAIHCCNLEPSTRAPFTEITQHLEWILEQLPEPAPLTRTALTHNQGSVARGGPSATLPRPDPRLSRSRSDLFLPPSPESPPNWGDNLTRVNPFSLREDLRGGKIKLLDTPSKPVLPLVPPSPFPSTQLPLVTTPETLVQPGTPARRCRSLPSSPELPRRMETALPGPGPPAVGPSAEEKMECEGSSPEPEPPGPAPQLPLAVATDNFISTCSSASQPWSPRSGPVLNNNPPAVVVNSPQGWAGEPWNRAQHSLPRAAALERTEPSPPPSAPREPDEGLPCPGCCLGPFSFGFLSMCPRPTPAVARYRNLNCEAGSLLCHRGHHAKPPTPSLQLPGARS
Protocol: as §1

CAMK2G = CAMK2G (Homo sapiens, UniProt Q13555); assay: KINOMEscan; conditions: read-out: Percent Control
Protocol: as §1

YSK1 = YSK1 (Homo sapiens, UniProt O00506); assay: KINOMEscan; conditions: read-out: Percent Control
YSK1, sequence (O00506 whole entry): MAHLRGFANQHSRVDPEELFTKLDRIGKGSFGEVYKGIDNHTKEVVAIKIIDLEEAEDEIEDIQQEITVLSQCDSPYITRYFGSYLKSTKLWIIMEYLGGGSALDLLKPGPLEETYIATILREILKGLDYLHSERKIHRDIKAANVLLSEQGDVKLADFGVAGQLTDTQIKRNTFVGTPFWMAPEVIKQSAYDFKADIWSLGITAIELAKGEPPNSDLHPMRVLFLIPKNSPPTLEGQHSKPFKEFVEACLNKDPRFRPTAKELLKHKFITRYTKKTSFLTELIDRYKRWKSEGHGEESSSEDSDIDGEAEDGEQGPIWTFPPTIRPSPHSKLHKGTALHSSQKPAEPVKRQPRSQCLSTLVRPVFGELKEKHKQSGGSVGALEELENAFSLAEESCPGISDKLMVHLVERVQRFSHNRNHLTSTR
Protocol: as §1

[1] = molecular target: RSK3(Kin.Dom.1-N-terminal) (Homo sapiens, UniProt Q15349); assay: KINOMEscan; conditions: read-out: Percent Control
Protocol: as §1

CDK8 = CDK8 (Homo sapiens, UniProt P49336); assay: KINOMEscan; conditions: read-out: Percent Control
Protocol: as §1

EPHA8 = EPHA8 (Homo sapiens, UniProt P29322); assay: KINOMEscan; conditions: read-out: Percent Control
Protocol: as §1

TSSK1B = TSSK1B (Homo sapiens, UniProt Q9BXA7); assay: KINOMEscan; conditions: read-out: Percent Control
Protocol: as §1

TRKC = TRKC (Homo sapiens, UniProt Q16288); assay: KINOMEscan; conditions: read-out: Percent Control
Protocol: as §1

[2] = molecular target: JAK2(JH1domain-catalytic) (Homo sapiens, UniProt O60674); assay: KINOMEscan; conditions: read-out: Percent Control
Protocol: as §1

ERBB3 = ERBB3 (Homo sapiens, UniProt P21860); assay: KINOMEscan; conditions: read-out: Percent Control
ERBB3, sequence (P21860 20-1342): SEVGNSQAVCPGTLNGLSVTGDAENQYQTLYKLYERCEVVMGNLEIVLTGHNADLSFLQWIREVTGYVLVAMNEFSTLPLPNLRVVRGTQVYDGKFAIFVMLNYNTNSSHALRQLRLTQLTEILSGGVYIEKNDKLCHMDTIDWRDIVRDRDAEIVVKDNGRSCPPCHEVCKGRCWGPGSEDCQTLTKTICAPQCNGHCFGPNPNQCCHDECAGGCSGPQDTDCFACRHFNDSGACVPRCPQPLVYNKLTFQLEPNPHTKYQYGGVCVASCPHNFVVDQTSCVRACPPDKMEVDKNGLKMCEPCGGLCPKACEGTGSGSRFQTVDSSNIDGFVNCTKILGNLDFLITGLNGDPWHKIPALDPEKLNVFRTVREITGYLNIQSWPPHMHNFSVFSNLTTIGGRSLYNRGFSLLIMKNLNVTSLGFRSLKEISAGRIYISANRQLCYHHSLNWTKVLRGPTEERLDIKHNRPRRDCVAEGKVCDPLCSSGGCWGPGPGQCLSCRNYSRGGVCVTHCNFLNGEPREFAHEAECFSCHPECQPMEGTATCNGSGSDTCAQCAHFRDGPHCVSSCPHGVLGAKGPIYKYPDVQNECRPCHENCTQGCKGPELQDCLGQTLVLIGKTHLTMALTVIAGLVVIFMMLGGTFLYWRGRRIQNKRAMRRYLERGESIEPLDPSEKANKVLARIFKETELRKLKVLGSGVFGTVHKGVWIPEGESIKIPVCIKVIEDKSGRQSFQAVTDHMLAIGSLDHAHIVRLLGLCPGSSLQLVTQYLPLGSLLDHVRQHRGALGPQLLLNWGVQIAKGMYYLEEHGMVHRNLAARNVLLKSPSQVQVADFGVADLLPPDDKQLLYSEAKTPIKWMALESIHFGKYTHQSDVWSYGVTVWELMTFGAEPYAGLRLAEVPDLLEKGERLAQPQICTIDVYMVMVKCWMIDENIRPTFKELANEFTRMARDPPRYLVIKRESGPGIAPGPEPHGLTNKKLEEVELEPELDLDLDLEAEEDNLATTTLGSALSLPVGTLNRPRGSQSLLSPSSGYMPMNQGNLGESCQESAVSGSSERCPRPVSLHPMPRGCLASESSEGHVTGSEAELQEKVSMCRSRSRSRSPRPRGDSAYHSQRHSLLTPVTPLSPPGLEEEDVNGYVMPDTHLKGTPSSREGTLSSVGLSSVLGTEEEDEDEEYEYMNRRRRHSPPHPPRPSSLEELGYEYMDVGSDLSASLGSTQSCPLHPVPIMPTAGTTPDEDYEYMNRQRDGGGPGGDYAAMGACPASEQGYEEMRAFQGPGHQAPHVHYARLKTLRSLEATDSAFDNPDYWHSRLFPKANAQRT
Protocol: as §1

MAP4K5 = MAP4K5 (Homo sapiens, UniProt Q9Y4K4); assay: KINOMEscan; conditions: read-out: Percent Control
Protocol: as §1

PAK4 = PAK4 (Homo sapiens, UniProt O96013); assay: KINOMEscan; conditions: read-out: Percent Control
Protocol: as §1

INSRR = INSRR (Homo sapiens, UniProt P14616); assay: KINOMEscan; conditions: read-out: Percent Control
Protocol: as §1

DAPK3 = DAPK3 (Homo sapiens, UniProt O43293); assay: KINOMEscan; conditions: read-out: Percent Control
Protocol: as §1

BMPR2 = BMPR2 (Homo sapiens, UniProt Q13873); assay: KINOMEscan; conditions: read-out: Percent Control
Protocol: as §1

WEE1, sequence (P30291 whole entry): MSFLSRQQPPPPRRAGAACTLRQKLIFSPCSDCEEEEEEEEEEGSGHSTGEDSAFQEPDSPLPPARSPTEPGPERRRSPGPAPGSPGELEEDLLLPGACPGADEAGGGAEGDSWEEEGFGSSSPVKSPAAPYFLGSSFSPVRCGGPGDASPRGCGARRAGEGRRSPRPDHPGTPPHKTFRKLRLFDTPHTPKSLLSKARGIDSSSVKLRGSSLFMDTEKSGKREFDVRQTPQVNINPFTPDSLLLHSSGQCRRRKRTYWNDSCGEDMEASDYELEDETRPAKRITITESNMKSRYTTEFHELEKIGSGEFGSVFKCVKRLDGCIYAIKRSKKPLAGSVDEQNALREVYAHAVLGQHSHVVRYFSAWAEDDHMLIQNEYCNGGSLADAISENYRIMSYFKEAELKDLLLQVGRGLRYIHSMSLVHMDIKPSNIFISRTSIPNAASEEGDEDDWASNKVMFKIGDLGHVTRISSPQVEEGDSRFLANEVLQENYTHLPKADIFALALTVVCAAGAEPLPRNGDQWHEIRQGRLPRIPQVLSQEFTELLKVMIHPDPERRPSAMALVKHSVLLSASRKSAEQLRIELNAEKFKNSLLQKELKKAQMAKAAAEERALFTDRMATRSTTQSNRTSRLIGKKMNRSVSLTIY

O=C1CCC(N2C(=O)c3cccc(NCCCCCCCCNC(=O)N4CC[C@H](NC5=Nc6cc(F)ccc6N(CC(F)F)c6ccc(Cl)cc65)C4)c3C2=O)C(=O)N1 (stereo partly drawn) [BJG-05-039, (3S)-3-((2-Chloro-5-(2,2-difluoroethyl)-8-fluoro-5H-dibenzo[b,e][1,4]diazepin-11-yl)amino)-N-(8-((2-(2,6-dioxopiperidin-3-yl)-1,3-dioxoisoindolin-4-yl)amino)octyl)pyrrolidine-1-carboxamide]
remaining binding at 10 µM (WEE1): 42%
remaining binding at 10 µM (NEK1): 83%
Reduction in PAK1 levels by immunoblot (PAK1; FIG. 2A): ~50%
PAK1 degradation (PAK1; MCF7 and OVCAR3 cells): induced degradation of PAK1
Concentration of maximal PAK1 degradation (PAK1; MCF7 and OVCAR3 cells, 12 hour treatment): 10 nM
Time to partial degradation of PAK1 (PAK1; MCF7 cells, 250 nM, progressive loss out to 24 hours): ≤ 4 h
PAK1 degradation on co-treatment (PAK1; co-treatment with bortezomib or MLN4924): prevented PAK1 destabilization
PAK1 degradation at high concentration (hook effect) (PAK1; concentrations of 1 μM and greater): diminished PAK1 degradation was observed
remaining binding at 10 µM (p38-gamma): 99%
remaining binding at 10 µM (GRK7): 100%
remaining binding at 10 µM (EGFR(L858R)): 74%
remaining binding at 10 µM (ROCK1): 100%
remaining binding at 10 µM (PKNB(M. tuberculosis)): 72%
remaining binding at 10 µM (ULK3): 92%
remaining binding at 10 µM (NEK10): 99%
remaining binding at 10 µM (ACVR2B): 46%
remaining binding at 10 µM (MST2): 80%
remaining binding at 10 µM (PKN2): 65%
remaining binding at 10 µM (CSNK2A1): 96%
remaining binding at 10 µM (MKK7): 100%
remaining binding at 10 µM (TIE1): 62%
remaining binding at 10 µM (DCAMKL1): 77%
remaining binding at 10 µM (RIPK2): 67%
remaining binding at 10 µM (TESK1): 92%
remaining binding at 10 µM (CAMK2G): 51%
remaining binding at 10 µM (YSK1): 83%
remaining binding at 10 µM [1]: 90%
remaining binding at 10 µM (CDK8): 80%
remaining binding at 10 µM (EPHA8): 84%
remaining binding at 10 µM (TSSK1B): 73%
remaining binding at 10 µM (TRKC): 100%
remaining binding at 10 µM [2]: 99%
remaining binding at 10 µM (ERBB3): 59%
remaining binding at 10 µM (MAP4K5): 59%
remaining binding at 10 µM (PAK4): 75%
remaining binding at 10 µM (INSRR): 65%
remaining binding at 10 µM (DAPK3): 40%
remaining binding at 10 µM (BMPR2): 100%
